This note sets out measurements from patent publication US12576107B2, “Methods of treating chronic inflammatory diseases” (METIMEDI PHARMACEUTICALS CO., LTD., priority 2018, dated 2026).

One test concerns hypoxia-mediated factors. The test can be described thus: Eye CID in vitro experiment, Western blot in ARPE-19 cells. In kind it is cell-based, Human. The conditions noted are these: 2.5 mM; ARPE-19 cells (retinal pigment epithelium); normoxia and hypoxia. As for the experimental part:
Human retinal pigment epithelium cell line, ARPE-19, was purchased from American Type Culture Collection (Manassas, VA, USA). The ARPE-19 cells were maintained in RPMI1640 containing 10% fetal bovine serum (Life Technologies, Gaithersburg, MD, USA), 100 IU/ml penicillin, and 100 μg/ml streptomycin (Welgene, Daegu, South Korea).
To prepare whole cell lysate, cells were lysed with lysis buffer (1% NP-40, 0.25% sodium deoxycholate, 150 mM NaCl, 1 mM EDTA, 1% Triton X-100, 50 mM Tris-HCl (pH 7.4), 10% Glycerol) with protease inhibitor cocktail (Roche, Basel, Switzerland) and phosphatase inhibitors (NA3VO4 1 mM, NaF 100 mM). Then, protein concentration was measured using the Bicinchoninic acid (BCA) assay kit (Thermo Scientific, Waltham, MA). Whole cell or nuclear lysates were transferred onto polyvinylidene fluoride membranes (Merck Millipore, Billerica, MA, USA). After blocking in 5% non-fat milk (Bio-Rad, Hercules, CA, USA) for 1 h, the membranes were incubated overnight at 4° C. with primary antibody diluted in TBST containing 100 mM Tris-HCl (pH 7.5), 1.5 M NaCl, and 0.5% Tween-20 obtained from Sigma-Aldrich, to which 5% BSA and 0.1% sodium azide (Sigma-Aldrich) had been added. Specific primary antibodies to HIF-1α (1:1000), HIF-2α (1:1000), LDH-A (1:1000), LDH-B (1:1000), TLR-4 (1:1000), NF-κB (1:1000), VEGF (1:1000), α-tubulin (1:1000), Actin (1:1000), and GAPDH (1:5000). […]

Test [1] deals with LPS-injected spinal cord of rats. Nature of the test: Multiple sclerosis / spinal cord injury model, intraspinal injection of LPS. In kind it is in vivo, Sprague-Dawley (SD) rats. The settings on record: 2 mg/kg daily subcutaneous 21 days. As to the method: (§1) Animals. […] Eight-week old male Sprague-Dawley (SD) rats were obtained from Samtako Co. (Osan, Gyeonggi-do, Republic of Korea) and bred under specific-pathogen-free (SPF) conditions. All animals were maintained in a 12-hour light/dark cycle at 22-25° C. with free access to food and water.
Dissolve 1 mg of LPS powder in 1 ml of saline. Keep the tubes on ice if LPS is going to be used fresh. For long storage, use screw cap vials are preferred. The aliquots were stored at deep freezer (−20° C.). Calcium lactate was purchased from Sigma Aldrich (St. Louis, USA).
Intraspinal injection of LPS. The animals were placed in a small acrylic cage that was coupled with an anesthesia machine that allowed them to breathe freely under gaseous anesthesia (2% isoflurane, Spartanburg, SC, USA). After full anesthesia of an animal was achieved, it was positioned on an operating table (while maintaining the gaseous anesthesia). For intraspinal injection of LPS, the laminectomy site of rats was exposed. Two small holes, 1 mm apart, were made in the dura over the left dorsal column. A volume of 1 μl of LPS solution was carefully drawn up into a sterile Hamilton syringe, and the LPS solution was slowly injected into the spinal cord. The syringe maintained in place for an additional 2 min to prevent back-flux from the injection site. Then, the injection site was closed by surgical clips.
Immunohistochemistry. […]

The subject of test [2] is LPS-damaged brain of rats. The test can be described thus: Alzheimer and stroke model, intracranial injection of LPS. In kind it is in vivo, Sprague-Dawley (SD) rats. The settings on record: 2 mg/kg daily subcutaneous 21 days. As to the method:
as §1
Dissolve 1 mg of LPS powder in 1 ml of saline. Keep the tubes on ice if LPS is going to be used fresh. For long storage, screw cap vials are preferred. The aliquots were stored at −20° C. Calcium lactate was purchased from Sigma Aldrich (St. Louis, MO, USA).
Intracranial injection of LPS. The animals were placed in a small acrylic cage that was coupled with an anesthesia machine that allowed them to breathe freely under gaseous anesthesia (2% isoflurane, Spartanburg, SC, USA). […] The animal fur of head was shaved with an electric clipper, and the skin was swabbed with iodine. LPS was kept it on ice before use. All the surgical materials disinfected with 70% ethanol. Hamilton syringe barrel inner space was cleaned with distilled water and 70% ethanol. The Hamilton syringe was placed in the syringe holder. The animal in the stereotaxic apparatus was placed on horizontal position. A midline incision (about 1 cm) on the skin of head was made with the scalpel. The needle of Hamilton syringe was placed on the bregma. Read the three coordinates (AP: −3.6, LM: 2.0, and DV: −3.8) on the manipulator (in mm) and write them down; this was used for starting point. Slowly, set the DV coordinate of the injection point; this inserts the needle tip into the brain until the injection point. The LPS solution (2 μl) was released at an approximate flow rate of 0.5 μl/min. After the injection, the needle was removed very slowly. The wound area was closed by suturing, and then disinfectant was applied. The rat was marked for further identification.
Immunohistochemistry. Brain tissue was sectioned at 5 μm on cryostat and stained for histological examination. Microscopic images were obtained at 200× magnification. […]

Turning to `CC(O)C(=O)[O-].CC(O)C(=O)[O-].[Ca+2]` (stereo not drawn) [calcium lactate], the “hypoxia-mediated factors, Western blot” value in the test on hypoxia-mediated factors is reported as “decreased”. Also, in test [1], the demyelinated spinal cord result was “Recovery” and the “microglia infiltration (Iba-1) in spinal cord” value is on record as “reduction”. For the same molecule, in test [2], the damaged brain tissue entry is “Recovery”; the “inflammatory reaction, which exacerbates Alzheimer's and stroke” value is “greatly reduced”; the “microglia infiltration (Iba-1) in brain” value is “reduction”.
